Active and inactive are the calls of the source. Cut-off read from the data, not from the text of the source, for most assays here: actives have a measured EC50 and inactives only a lower limit.
Experiments:
[1] = molecular target: T1, Replicative DNA helicase DnaB (Mycobacterium tuberculosis, UniProt P9WMR3); assay: DnaB intein splicing inhibitors, dose response, biochemical, cell-free fluorescence (AID 449749); assay type: functional
T1 sequence (P9WMR3 whole entry): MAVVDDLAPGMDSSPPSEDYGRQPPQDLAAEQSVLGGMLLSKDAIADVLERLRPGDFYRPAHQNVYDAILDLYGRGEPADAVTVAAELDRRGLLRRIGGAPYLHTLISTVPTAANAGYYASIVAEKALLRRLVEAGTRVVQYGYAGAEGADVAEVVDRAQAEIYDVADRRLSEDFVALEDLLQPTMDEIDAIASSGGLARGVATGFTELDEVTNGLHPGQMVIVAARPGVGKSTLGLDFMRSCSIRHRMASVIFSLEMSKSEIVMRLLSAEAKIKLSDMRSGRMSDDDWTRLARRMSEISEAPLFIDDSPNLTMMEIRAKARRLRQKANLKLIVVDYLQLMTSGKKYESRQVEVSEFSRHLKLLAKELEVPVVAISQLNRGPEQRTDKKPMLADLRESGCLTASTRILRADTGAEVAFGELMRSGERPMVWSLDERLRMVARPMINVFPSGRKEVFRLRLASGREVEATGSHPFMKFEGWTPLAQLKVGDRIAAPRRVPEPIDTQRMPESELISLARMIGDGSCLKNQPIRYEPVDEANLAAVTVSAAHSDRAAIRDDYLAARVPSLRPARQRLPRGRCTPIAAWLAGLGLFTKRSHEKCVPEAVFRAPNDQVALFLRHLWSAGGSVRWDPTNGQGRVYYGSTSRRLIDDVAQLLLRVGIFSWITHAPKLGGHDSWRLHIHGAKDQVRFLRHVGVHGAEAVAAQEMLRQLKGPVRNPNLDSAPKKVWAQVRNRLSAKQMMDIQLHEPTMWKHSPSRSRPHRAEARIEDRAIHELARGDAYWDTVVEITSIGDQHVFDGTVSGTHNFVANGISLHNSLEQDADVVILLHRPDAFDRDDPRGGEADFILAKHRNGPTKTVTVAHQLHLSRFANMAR

Protein RecA = molecular target: T2, Protein RecA (Mycobacterium tuberculosis, UniProt P9WHJ3); assay: Fluorescence Cell-Free Homogeneous Dose Retest to Identify Inhibitors of RecA-Intein Splicing Activity. [Related pubchem assays (depositor defined):AID2097, AID2223, AID489010, AID492950]; assay type: functional
T2 sequence (P9WHJ3 whole entry): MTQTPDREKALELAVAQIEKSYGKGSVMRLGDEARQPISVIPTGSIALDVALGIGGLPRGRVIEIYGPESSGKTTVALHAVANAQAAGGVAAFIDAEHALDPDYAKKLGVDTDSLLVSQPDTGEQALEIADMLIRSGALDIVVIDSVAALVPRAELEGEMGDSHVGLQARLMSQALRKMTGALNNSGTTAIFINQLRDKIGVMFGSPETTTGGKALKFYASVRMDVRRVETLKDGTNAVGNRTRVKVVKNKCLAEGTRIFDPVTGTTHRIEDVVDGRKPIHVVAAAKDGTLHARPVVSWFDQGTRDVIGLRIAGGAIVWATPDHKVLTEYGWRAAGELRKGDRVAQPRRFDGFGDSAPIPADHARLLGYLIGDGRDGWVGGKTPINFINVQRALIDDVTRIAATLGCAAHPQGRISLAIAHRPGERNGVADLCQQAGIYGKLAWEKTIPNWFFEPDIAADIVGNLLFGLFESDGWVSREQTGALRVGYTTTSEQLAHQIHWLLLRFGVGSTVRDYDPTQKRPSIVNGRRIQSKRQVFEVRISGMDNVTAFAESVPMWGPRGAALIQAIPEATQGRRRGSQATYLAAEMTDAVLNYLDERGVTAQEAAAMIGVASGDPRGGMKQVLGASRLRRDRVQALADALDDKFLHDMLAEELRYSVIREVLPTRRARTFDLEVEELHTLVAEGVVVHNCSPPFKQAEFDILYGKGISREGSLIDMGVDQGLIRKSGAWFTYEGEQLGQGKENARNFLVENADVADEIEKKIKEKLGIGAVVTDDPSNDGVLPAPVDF

Protein skinhead-1 = molecular target: T3, Protein skinhead-1 (Caenorhabditis elegans, UniProt P34707); assay type: functional
T3 sequence (P34707 whole entry): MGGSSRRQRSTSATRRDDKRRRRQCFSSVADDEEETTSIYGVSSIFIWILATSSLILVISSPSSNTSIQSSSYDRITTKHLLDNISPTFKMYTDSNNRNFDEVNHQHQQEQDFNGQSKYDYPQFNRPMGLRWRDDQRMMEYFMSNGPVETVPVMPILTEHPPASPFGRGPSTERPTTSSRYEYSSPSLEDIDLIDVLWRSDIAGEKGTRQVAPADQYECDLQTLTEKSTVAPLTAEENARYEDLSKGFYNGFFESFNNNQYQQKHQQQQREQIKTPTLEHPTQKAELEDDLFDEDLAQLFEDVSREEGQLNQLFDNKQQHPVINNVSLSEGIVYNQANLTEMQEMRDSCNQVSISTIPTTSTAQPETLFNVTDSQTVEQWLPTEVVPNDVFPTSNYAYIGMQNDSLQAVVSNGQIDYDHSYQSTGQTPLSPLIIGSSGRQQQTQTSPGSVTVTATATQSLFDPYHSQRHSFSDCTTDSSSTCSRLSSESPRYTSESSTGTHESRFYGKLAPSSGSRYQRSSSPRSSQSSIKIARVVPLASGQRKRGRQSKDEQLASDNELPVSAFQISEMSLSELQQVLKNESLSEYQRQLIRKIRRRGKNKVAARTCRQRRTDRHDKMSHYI

[2] = Trypanosoma cruzi growth suppression in host cells – NIH3T3 host cells, beta-gal luminescence, confirmation (AID 2044); assay type: functional, cell-based;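 note: intracellular parasites grown in NIH/3T3 mouse fibroblasts as host cells; luminescent beta-galactosidase reporter signal from transgenic T. cruzi replicating inside host cells; inhibitors lower the luminescence signal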
[3] = NIH3T3 cell viability loss – ATP luminescence, mouse fibroblasts, counter-screen, dose response (AID 2010); assay type: functional, cell-based;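 note: cells exposed to compound for about 90 hours before reading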
[4] = molecular target: Luciferin 4-monooxygenase (Photinus pyralis, UniProt P08659); assay: inhibition of purified Photinus pyralis luciferase – biochemical, luminescence, dose response (AID 1891)
[5] = Luminescence Cell-Based Dose Confirmation HTS to Identify Inhibitors of Platelet Dense Granule Release. [Related pubchem assays: 1663 (Primary HTS), 1678 (Summary of Project)]; assay type: functional
[6] = Luminescence Cell-Based Dose Retest to Confirm Inhibitors of Cancer Stem Cells. [Related pubchem assays (depositor defined):AID2717, AID2721]; assay type: functional; conditions: Homo sapiens
[7] = molecular target: T4, Rac GTPase-activating protein 1 (Homo sapiens, UniProt Q9H0H5); assay: blockers of MgcRacGAP-driven Rac1 GTP hydrolysis – biochemical, ADP Hunter fluorescence, primary and confirmatory, confirmation (AID 624330); assay type: functional
T4 sequence (Q9H0H5 whole entry): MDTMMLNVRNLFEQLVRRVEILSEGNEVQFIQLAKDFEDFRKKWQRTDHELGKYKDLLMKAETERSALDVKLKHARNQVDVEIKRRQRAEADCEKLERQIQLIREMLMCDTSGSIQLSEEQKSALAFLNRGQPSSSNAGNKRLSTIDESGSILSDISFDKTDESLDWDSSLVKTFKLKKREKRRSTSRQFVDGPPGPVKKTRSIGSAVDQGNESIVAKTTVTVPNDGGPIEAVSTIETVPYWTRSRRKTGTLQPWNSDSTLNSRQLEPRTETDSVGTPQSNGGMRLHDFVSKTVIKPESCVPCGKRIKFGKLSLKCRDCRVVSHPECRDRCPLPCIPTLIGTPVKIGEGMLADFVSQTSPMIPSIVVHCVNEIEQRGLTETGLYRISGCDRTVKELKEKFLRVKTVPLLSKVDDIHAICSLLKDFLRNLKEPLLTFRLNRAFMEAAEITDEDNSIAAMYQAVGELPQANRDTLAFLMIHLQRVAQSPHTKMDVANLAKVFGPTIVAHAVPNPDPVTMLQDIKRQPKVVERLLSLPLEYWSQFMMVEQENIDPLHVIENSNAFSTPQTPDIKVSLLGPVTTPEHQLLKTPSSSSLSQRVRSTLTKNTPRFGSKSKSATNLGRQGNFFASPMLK

Chain of Luciferin 4-monooxygenase (P08659 whole entry): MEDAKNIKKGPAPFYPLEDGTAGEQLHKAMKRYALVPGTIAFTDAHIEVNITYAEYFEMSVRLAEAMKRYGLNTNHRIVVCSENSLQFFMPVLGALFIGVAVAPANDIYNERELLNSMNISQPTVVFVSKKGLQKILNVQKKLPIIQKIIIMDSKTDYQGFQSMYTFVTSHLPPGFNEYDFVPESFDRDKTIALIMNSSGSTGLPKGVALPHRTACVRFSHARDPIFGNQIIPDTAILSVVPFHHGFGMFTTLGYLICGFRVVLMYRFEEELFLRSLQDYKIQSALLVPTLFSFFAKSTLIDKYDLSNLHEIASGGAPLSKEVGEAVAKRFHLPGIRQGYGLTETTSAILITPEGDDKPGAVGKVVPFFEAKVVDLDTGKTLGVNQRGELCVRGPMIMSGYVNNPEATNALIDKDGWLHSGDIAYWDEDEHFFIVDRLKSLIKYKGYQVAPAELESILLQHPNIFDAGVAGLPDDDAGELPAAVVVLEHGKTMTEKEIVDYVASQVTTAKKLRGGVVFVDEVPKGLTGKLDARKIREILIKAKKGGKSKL

| Compound | AC50 [1] | EC50 (Protein RecA) | IC50 (Protein skinhead-1) | also measured |
| --- | --- | --- | --- | --- |
| CN1CCN2c3ccc(N)cc3CC3(C(=O)NC(=O)NC3=O)C2C1 (stereo unspecified) | 147 µM (active) | 39.5 µM (active) |  |  |
| CN(C)C(CNC(=O)c1cccc(S(=O)(=O)N2CCN(c3ccc(F)cc3)CC2)c1)c1ccccc1 (stereo unspecified) |  |  | 63.4 µM (inactive) |  |
| Cn1cnc([N+](=O)[O-])c1Oc1ccc2ccccc2c1 | 31.9 µM (active) | 12.7 µM (active) |  |  |
| CCOC(=O)CSc1nc2sc3c(c2c(=O)n1C1CCCCC1)CCN(C)C3 | > 380 µM (inactive) | 15.2 µM (active) |  | EC50 [2]: 1.43 µM (active); EC50 [3]: > 30 µM (not active) |
| Cn1nc(C(=O)Nc2nc3ccc(S(C)(=O)=O)cc3s2)ccc1=O |  |  |  | EC50 [4]: 3.18 µM (active); EC50 [5]: 7.45 µM (active) |
| O=C(/C=C/c1ccc([N+](=O)[O-])cc1)NCc1cccs1 |  |  |  | EC50 [4]: > 112 µM (not active); EC50 [5]: 57.2 µM (active) |
| Cc1ccc(-c2nc3ccc(Br)cn3c2Cc2ccccc2C(F)(F)F)cc1 |  |  | 75.5 µM (inactive) |  |
| O=C(NC1CCCC1)C(c1ccc(F)cc1)N(Cc1ccc(Cl)cc1)C(=O)CCl (stereo unspecified) | 9.46 µM (active) | 0.965 µM (active) |  |  |
| Brc1ccc(-c2nc(-c3ccccc3)no2)o1 |  |  | 14.1 µM (active) |  |
| Cc1ccc2c(c1)c1nnc(SCC(=O)Nc3ccc(N(C)C)cc3)nc1n2CC(=O)O | 92.5 µM (active) | 0.483 µM (active) |  |  |
| CCOc1cc(/C=C2\C(=N)N3N=C(N4CCCCC4)SC3=NC2=O)ccc1OC(=O)c1ccco1 | > 380 µM (inactive) | 18.6 µM (active) |  |  |
| Cc1cccc(CCNC(=O)c2cc(S(=O)(=O)N3CCCC3)cn2C)c1 |  |  |  | EC50 [4]: > 112 µM (not active); EC50 [5]: > 112 µM (not active) |
| Cc1ccc(S(=O)(=O)/N=C(\c2ccc(F)cc2)n2c(C)nc3ccccc32)cc1 |  |  |  | EC50 [4]: > 112 µM (not active); EC50 [5]: > 112 µM (not active) |
| COc1ccc(-c2nc(C[S+]([O-])CC(=O)NCc3ccco3)c(C)o2)cc1 (stereo unspecified) |  |  |  | EC50 [4]: > 112 µM (not active); EC50 [5]: 27.9 µM (active) |
| O=C1NC[C@H](Cc2ccccc2)N(C[C@@H]2CCCN2C[C@H](Cc2ccc(O)cc2)N2C[C@H](Cc3ccccc3)N(CC3CCCCCC3)C(=O)C2=O)C1=O |  |  | > 100 µM (inactive) |  |
| Cc1ccc2c(c1)COc1c3ccc(C(=O)N4CCOCC4)cc3nn1-2 |  |  |  | EC50 [4]: 29.6 µM (active); EC50 [5]: 20.9 µM (active) |
| COCC(C)NC(=O)CCS(=O)(=O)c1nc(-c2ccc(OC)cc2)cc(C(F)(F)F)n1 (stereo unspecified) | 12.5 µM (active) | 6.72 µM (active) |  |  |

| Compound | AC50 [1] | EC50 (Protein RecA) | IC50 (Protein skinhead-1) | also measured |
| --- | --- | --- | --- | --- |
| Cc1cc(NC(=O)CSCC(=O)Nc2ccccc2N2CCCCC2)no1 |  |  |  | EC50 [4]: > 112 µM (not active); EC50 [5]: > 112 µM (not active) |
| CCCc1n[nH]c2c1C(c1ccc(OC(=O)c3ccco3)cc1)C(C#N)=C(N)O2 (stereo unspecified) | 3.41 µM (active) | 5.22 µM (active) |  |  |
| COc1cc2c(cc1OC)[C@@H](NC(=O)CCc1ccccc1)[C@H](OCc1ccccc1)C2 |  |  | > 100 µM (inactive) |  |
| N#CC(C#N)=C(C#N)c1ccc(Nc2ccccc2)cc1 | > 380 µM (inactive) | 2.49 µM (active) |  | AC50 [6]: 2.54 µM (active) |
| CC(=O)c1cnc2c(-c3ccc(Cl)cc3)c(C)nn2c1C |  |  |  | EC50 [4]: > 112 µM (not active); EC50 [5]: 78.7 µM (active) |
| CCc1ccc(NC(=O)CSc2ccc(-c3sc(C)nc3C)nn2)cc1 | 278 µM (active) | > 380 µM (inactive) |  |  |
| COc1ccc(-c2[nH]nc3c2C(c2ccccc2OC(=O)N2CCOCC2)C(C#N)=C(N)O3)cc1 (stereo unspecified) | 11.2 µM (active) | 3.91 µM (active) |  |  |
| COc1cccc(-n2cnnn2)c1 |  |  | > 100 µM (inactive) |  |
| COC(=O)C1C2CC3c4[nH]c5cc(OC)ccc5c4CCN3CC2CC(OC(=O)CC(C)=O)C1OC (stereo unspecified) |  |  | > 100 µM (inactive) |  |
| COc1ccc(CC(=O)N/N=C(/C)CC(=O)N(C)c2ccccc2)cc1 | 29.3 µM (active) | 9.23 µM (active) |  |  |
| CCCCCN(C(=O)CCC(=O)OCC(=O)N1C(C)CCCC1C)c1c(N)n(CCCC)c(=O)[nH]c1=O (stereo unspecified) |  |  |  | EC50 [4]: > 112 µM (not active); EC50 [5]: > 112 µM (not active) |
| C(/C=C/c1ccccn1)=C\c1ccccc1 |  |  | 50.8 µM (inactive) |  |
| O=C(Nc1ccccc1Cl)c1cc(C2CCCN(C(=O)OCCF)C2)on1 (stereo unspecified) |  |  | > 100 µM (inactive) |  |
| CCOC(=O)/C(C#N)=C\c1ccc(O)c(OC)c1 | 27.2 µM (active) | 9.54 µM (active) |  | IC50 [7]: 48.9 µM (active) |
| c1ccc(OCc2cc(-c3ccccc3)no2)cc1 |  |  | 68.7 µM (inactive) |  |
| Cc1onc(-c2c(F)cccc2Cl)c1C(=O)Nc1nc2ccccc2[nH]1 |  |  | > 100 µM (inactive) |  |
| Cc1ccc(Cl)c(OCC(=O)Nc2ccccc2C(=O)NC2CC2)c1 |  |  |  | EC50 [4]: > 112 µM (not active); EC50 [5]: > 112 µM (not active) |
